Test results taken from patent US9695155B2, “Herbicidal substituted pyrimidinyloxy benzene compounds” (E. I. DU PONT DE NEMOURS AND COMPANY, priority 2013, dated 2017).

Experiments:
[1] = tested on: velvetleaf; assay: Test A postemergence; assay type: in vivo, Abutilon theophrasti
Method in brief: (§1)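 Scoring: eye-based comparison with untreated controls, 0 for no effect through 100 for complete control, at about day 10. Treatments: directed soil spray preemergence; foliar spray postemergence on 2–10 cm plants at the one- to two-leaf stage. Medium: loam soil with sand.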

[2] = tested on: pigweed; assay: Test A preemergence; assay type: in vivo, Amaranthus retroflexus
Method in brief: as §1

[3] = tested on: morningglory; assay: Test A preemergence; assay type: in vivo, Ipomoea spp.
Method in brief: as §1

[4] = tested on: pigweed; assay: Test A postemergence; assay type: in vivo, Amaranthus retroflexus
Method in brief: as §1

[5] = tested on: blackgrass; assay: Test C postemergence; assay type: in vivo, Alopecurus myosuroides
Description: (§2) Seeds of plant species selected from blackgrass (Alopecurus myosuroides), Italian ryegrass (Lolium multiflorum), wheat, winter (winter wheat, Triticum aestivum), galium (catchweed bedstraw, Galium aparine), corn (Zea mays), large (Lg) crabgrass (Digitaria sanguinalis), giant foxtail (Setaria faberii), johnsongrass (Sorghum halepense), lambsquarters (Chenopodium album), morningglory (Ipomoea coccinea), yellow nutsedge (Cyperus esculentus), pigweed (Amaranthus retroflexus), ragweed (common ragweed, Ambrosia elatior), soybean (Glycine max), barnyardgrass (Echinochloa crus-galli), oilseed rape (Brassica napus), waterhemp (common waterhemp, Amaranthus rudis), kochia (Kochia scoparia), wild oat (Avena fatua), surinam grass (Brachiaria decumbens), foxtail, green (green foxtail, Setaria viridis), goosegrass (Eleusine indica), bromegrass, downy (downy bromegrass, Bromus tectorum), nightshade (eastern black nightshade, Solanum ptycanthum), cocklebur (common cocklebur, Xanthium strumarium), cupgrass, woolly (woolly cupgrass, Eriochloa villosa), bermudagrass (Cynodon dactylon), sunflower, (common oilseed sunflower, Helianthus annuus), Russian thistle (Salsola kali), and velvetleaf (Abutilon theophrasti) were planted into a blend of loam soil and sand and treated preemergence with test chemicals formulated in a non-phytotoxic solvent mixture which included a surfactant.
(§3) At the same time, plants selected from these crop and weed species and also barley, winter (winter barley, Hordeum vulgare), windgrass (Apera spica-venti), chickweed (common chickweed, Stellaria media), deadnettle (henbit deadnettle, Lamium amplexicaule), and canarygrass (littleseed canarygrass, Phalaris minor) were planted in pots containing Redi-Earth® planting medium (Scotts Company, 14111 Scottslawn Road, Marysville, Ohio 43041) comprising spaghnum peat moss, vermiculite, wetting agent and starter nutrients and treated with postemergence applications of test chemicals formulated in the same manner. Plants ranged in height from 2 to 18 cm (1- to 4-leaf stage) for postemergence treatments. Treated plants and controls were maintained in a greenhouse for 13 to 15 days, after which time all species were compared to controls and visually evaluated. Plant response ratings, summarized in Table C, are based on a scale of 0 to 100 where 0 is no effect and 100 is complete control. A dash (-) response means no test result.

[6] = tested on: rice; assay: Test B flooded paddy test; assay type: in vivo, Oryza sativa; conditions: Flood, 250 g ai/ha, 0 to 100 scale where 0 is no effect and 100 is complete control
Method in brief: (§4)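 Compound added straight to paddy water, with pots kept flooded 3 cm above soil, on plants grown to the 2-leaf stage. Visual scoring 0-100 (100 = complete control) against untreated controls after 13 to 15 greenhouse days.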

[7] = tested on: barnyardgrass; assay: Test A postemergence; assay type: in vivo, Echinochloa crus-galli
Method in brief: as §1

[8] = tested on: large (Lg) crabgrass; assay: Test C postemergence; assay type: in vivo, Digitaria sanguinalis
Description: as §2, §3

[9] = tested on: ragweed; assay: Test C postemergence; assay type: in vivo, Ambrosia elatior
Description: as §2, §3

[10] = tested on: barnyardgrass; assay: Test B flooded paddy test; assay type: in vivo, Echinochloa crus-galli; conditions: Flood, 250 g ai/ha, 0 to 100 scale where 0 is no effect and 100 is complete control
Method in brief: as §4

[11] = 125 g ai/ha, 0 to 100 scale where 0 is no effect and 100 is complete control
[12] = 500 g ai/ha, 0 to 100 scale, 0 no effect, 100 complete control
[13] = 500 g ai/ha, 0 to 100 scale, 0 no effect, 100 complete control, approx. 10 days
[14] = Postemergence, 31 g ai/ha, scale 0 to 100 (0 no effect, 100 complete control), 13 to 15 days
[15] = Postemergence, 62 g ai/ha, scale 0 to 100 (0 no effect, 100 complete control)
[16] = 1000 g ai/ha, 0 to 100 scale, 0 no effect, 100 complete control
[17] = 1000 g ai/ha, 0 to 100 scale, 0 no effect, 100 complete control, approx. 10 days
[18] = 8 g ai/ha, postemergence, 0 is no effect, 100 is complete control
[19] = 16 g ai/ha, postemergence, 0 is no effect, 100 is complete control
[20] = 500 g ai/ha, 0 to 100 scale where 0 is no effect and 100 is complete control
[21] = 125 g ai/ha, 0 to 100 scale, 0 no effect, 100 complete control
[22] = 31 g ai/ha, postemergence, visual rating, scale 0 to 100 (0 no effect, 100 complete control), 13 to 15 days
[23] = 125 g ai/ha, postemergence, visual rating, scale 0 to 100 (0 no effect, 100 complete control)
[24] = Postemergence, 62 g ai/ha, scale 0 to 100 (0 no effect, 100 complete control), 13 to 15 days

Fc1cnc(Oc2ccccc2-n2cc(Br)cn2)nc1 [Compound 10, 2-[2-(4-bromo-1H-pyrazol-1-yl)phenoxy]-5-fluoropyrimidine]
pest or weed control at 125 g/ha ([1]; Abutilon theophrasti, post-emergence, 240 h, 125 g ai/ha, 0 to 100 scale where 0 is no effect and 100 is complete control, read-out: Plant response rating, Velvetleaf): 100%
pest or weed control at 500 g/ha ([1]; Abutilon theophrasti, post-emergence, 240 h, 500 g ai/ha, 0 to 100 scale, 0 no effect, 100 complete control, read-out: Plant response rating Velvetleaf): 100%
pest or weed control at 125 g/ha ([2]; Amaranthus retroflexus, pre-emergence, 240 h, 125 g ai/ha, 0 to 100 scale where 0 is no effect and 100 is complete control, read-out: Pigweed plant response rating): 100%
pest or weed control at 500 g/ha ([2]; Amaranthus retroflexus, pre-emergence, 240 h, 500 g ai/ha, 0 to 100 scale, 0 no effect, 100 complete control, approx. 10 days, read-out: Pigweed plant response rating): 100%
pest or weed control at 125 g/ha ([3]; Ipomoea, pre-emergence, 240 h, 125 g ai/ha, 0 to 100 scale where 0 is no effect and 100 is complete control, read-out: Morningglory plant response rating): 40%
pest or weed control at 500 g/ha ([3]; Ipomoea, pre-emergence, 240 h, 500 g ai/ha, 0 to 100 scale, 0 no effect, 100 complete control, approx. 10 days, read-out: Morningglory plant response rating): 60%
pest or weed control at 125 g/ha ([4]; Amaranthus retroflexus, post-emergence, 125 g ai/ha, 0 to 100 scale where 0 is no effect and 100 is complete control, read-out: Plant response rating, Pigweed): 100%
pest or weed control at 500 g/ha ([4]; Amaranthus retroflexus, post-emergence, 240 h, 500 g ai/ha, 0 to 100 scale, 0 no effect, 100 complete control, read-out: Plant response rating Pigweed): 100%
pest or weed control at 125 g/ha ([5]; Alopecurus myosuroides, post-emergence, 125 g ai/ha, postemergence, read-out: Plant response rating (0 to 100), Blackgrass): 40%
pest or weed control at 250 g/ha ([5]; Alopecurus myosuroides, post-emergence, 250 g ai/ha, postemergence, read-out: Plant response rating (0 to 100), Blackgrass): 75%
pest or weed control at 31 g/ha ([5]; Alopecurus myosuroides, post-emergence, Postemergence, 31 g ai/ha, scale 0 to 100 (0 no effect, 100 complete control), 13 to 15 days, read-out: Plant response rating, Blackgrass): 5%
pest or weed control at 62 g/ha ([5]; Alopecurus myosuroides, post-emergence, Postemergence, 62 g ai/ha, scale 0 to 100 (0 no effect, 100 complete control), read-out: Plant response rating, Blackgrass): 5%
plant injury at 250 g/ha ([6]; Oryza sativa, read-out: Plant response rating, Rice): 0%
pest or weed control at 125 g/ha ([7]; Echinochloa crus-galli, post-emergence, 240 h, 125 g ai/ha, 0 to 100 scale where 0 is no effect and 100 is complete control, read-out: Plant response rating, Barnyardgrass): 40%
pest or weed control at 500 g/ha ([7]; Echinochloa crus-galli, post-emergence, 240 h, 500 g ai/ha, 0 to 100 scale, 0 no effect, 100 complete control, read-out: Plant response rating Barnyardgrass): 90%
pest or weed control at 125 g/ha ([8]; Digitaria sanguinalis, post-emergence, 125 g ai/ha, postemergence, read-out: Plant response rating (0 to 100), Crabgrass, Large): 5%
pest or weed control at 250 g/ha ([8]; Digitaria sanguinalis, post-emergence, 250 g ai/ha, postemergence, read-out: Plant response rating (0 to 100), Crabgrass, Large): 35%
pest or weed control at 31 g/ha ([8]; Digitaria sanguinalis, post-emergence, Postemergence, 31 g ai/ha, scale 0 to 100 (0 no effect, 100 complete control), 13 to 15 days, read-out: Plant response rating, Crabgrass, Large): 5%
pest or weed control at 62 g/ha ([8]; Digitaria sanguinalis, post-emergence, Postemergence, 62 g ai/ha, scale 0 to 100 (0 no effect, 100 complete control), read-out: Plant response rating, Crabgrass, Large): 5%
pest or weed control at 125 g/ha ([9]; Ambrosia artemisiifolia, post-emergence, 125 g ai/ha, postemergence, read-out: Plant response rating (0 to 100), Ragweed): 55%
pest or weed control at 250 g/ha ([9]; Ambrosia artemisiifolia, post-emergence, 250 g ai/ha, postemergence, read-out: Plant response rating (0 to 100), Ragweed): 80%
pest or weed control at 31 g/ha ([9]; Ambrosia artemisiifolia, post-emergence, Postemergence, 31 g ai/ha, scale 0 to 100 (0 no effect, 100 complete control), 13 to 15 days, read-out: Plant response rating, Ragweed): 50%
pest or weed control at 62 g/ha ([9]; Ambrosia artemisiifolia, post-emergence, Postemergence, 62 g ai/ha, scale 0 to 100 (0 no effect, 100 complete control), read-out: Plant response rating, Ragweed): 50%
pest or weed control at 250 g/ha ([10]; Echinochloa crus-galli, read-out: Plant response rating, Barnyardgrass): 0%

N#Cc1cccc(Oc2ncc(F)cn2)c1-n1cc(Br)cn1 [Compound 62]
Plant response rating, Velvetleaf [1, 11]: 100
Plant response rating, Velvetleaf [1, 12]: 100
Plant response rating, Pigweed [2, 11]: 100
Pigweed plant response rating [2, 13]: 100
Plant response rating, Morningglory [3, 11]: 0
Morningglory plant response rating [3, 13]: 90
Plant response rating, Pigweed [4, 11]: 100
Plant response rating, Pigweed [4, 12]: 100
Plant response rating (0 to 100), Blackgrass ([5]; 125 g ai/ha, postemergence): 30
Plant response rating (0 to 100), Blackgrass ([5]; 250 g ai/ha, postemergence): 50
Plant response rating, Blackgrass [5, 14]: 0
Plant response rating, Blackgrass [5, 15]: 5
Plant response rating, Rice [6]: 0
Plant response rating, Barnyardgrass [7, 11]: 90
Plant response rating, Barnyardgrass [7, 12]: 100
Plant response rating (0 to 100), Crabgrass, Large ([8]; 125 g ai/ha, postemergence): 10
Plant response rating (0 to 100), Crabgrass, Large ([8]; 250 g ai/ha, postemergence): 35
Plant response rating, Crabgrass, Large [8, 14]: 5
Plant response rating, Crabgrass, Large [8, 15]: 5
Plant response rating (0 to 100), Ragweed ([9]; 125 g ai/ha, postemergence): 50
Plant response rating (0 to 100), Ragweed ([9]; 250 g ai/ha, postemergence): 50
Plant response rating, Ragweed [9, 14]: 40
Plant response rating, Ragweed [9, 15]: 40
Plant response rating, Barnyardgrass [10]: 0

CC(=NO)c1cn(-c2c(Br)cccc2Oc2ncc(Cl)cn2)nn1 [Compound 115]
Plant response rating, Velvetleaf [1, 16]: 100
Pigweed plant response rating [2, 17]: 100
Morningglory plant response rating [3, 17]: 50
Plant response rating, Pigweed [4, 16]: 100
Plant response rating (0 to 100), Blackgrass ([5]; 4 g ai/ha, postemergence, 0 is no effect, 100 is complete control): 0
Plant response rating (0 to 100), Blackgrass [5, 18]: 0
Plant response rating (0 to 100), Blackgrass [5, 19]: 0
Plant response rating, Blackgrass [5, 14]: 5
Plant response rating, Rice [6]: 0
Plant response rating, Barnyardgrass [7, 16]: 90
Plant response rating (0 to 100), Crabgrass, Large [8, 18]: 5
Plant response rating (0 to 100), Crabgrass, Large [8, 19]: 5
Plant response rating (0 to 100), Ragweed [9, 18]: 5
Plant response rating (0 to 100), Ragweed [9, 19]: 5
Plant response rating, Barnyardgrass [10]: 0

N#Cc1cccc(Oc2ncc(Cl)cn2)c1-n1cc(-n2ccc(C(F)(F)F)n2)cn1 [Compound 284]
Pigweed plant response rating (0 to 100 scale) ([2]; 125 g ai/ha): 100
Pigweed plant response rating [2, 20]: 100
Plant response rating, Pigweed [4, 21]: 100
Plant response rating, Pigweed [4, 20]: 100
Blackgrass plant response rating [5, 22]: 5
Plant response rating, Blackgrass [5, 23]: 5
Plant response rating (0 to 100), Blackgrass ([5]; 250 g ai/ha, postemergence): 5
Plant response rating, Blackgrass [5, 24]: 5
Plant response rating, Rice [6]: 0
Plant response rating, Barnyardgrass [7, 21]: 30
Plant response rating, Barnyardgrass [7, 20]: 90
Crabgrass, Large plant response rating [8, 22]: 5
Plant response rating, Crabgrass, Large [8, 23]: 10
Plant response rating (0 to 100), Crabgrass, Large ([8]; 250 g ai/ha, postemergence): 10
Plant response rating, Crabgrass, Large [8, 24]: 5
Ragweed plant response rating [9, 22]: 55
Plant response rating, Ragweed [9, 23]: 50
Plant response rating (0 to 100), Ragweed ([9]; 250 g ai/ha, postemergence): 80
Plant response rating, Ragweed [9, 24]: 55
Plant response rating, Barnyardgrass [10]: 0
